The results in this text go back to patent US20220402948A1, “EGFR INHIBITOR, COMPOSITION AND PREPARATION METHOD THEREFOR” (BETTA PHARMACEUTICALS CO., LTD., priority 2019, published 2022).

For orientation: IC50 means the concentration that gives 50% inhibition.

Read-outs that look alike come from different tables or passages of the source. Some results are limits rather than exact numbers.

In test [1] the target is Ba/F3-EGFR wild-type cell line (Homo sapiens, UniProt P00533). Put plainly: Ba/F3-EGFR wild-type cell proliferation assay (CellTiter Glo, 72 hours). It counts as cell-based. The following applies: Table 2, read-out: EGFR WT IC50. The protocol:
Cell line: Ba/F3 cells with EGFR Δ19del/T790M/C797S mutation gene stably overexpressed named Ba/F3-Δ119del/T90M/C797S, and A431 and Ba/F3-EGFR wild-type cell line.
a) Centrifuge the growth cells in logarithmic phase at 1000 rpm for 5 minutes, resuspend the cells in culture medium, and then count the cells;
b) Inoculate the cells into a 96-well cell culture plate with a density of 2000 cells/well;
b) Incubate cells in an incubator for another 72 hours.
a) Take out the 96-well cell culture plate and add 50 μl CTG reagent (CellTiter Glo kit, promega, Cat #G7573);
b) Shake the plate for 2 minutes and let cool at room temperature for 10 minutes;
c) Read luminous signal value with PerkinElmer reader,
Analysis of Experimental Data
The data were analyzed by GraphPad Prism 6.0 software to obtain the fitting curve of compound activity.
Y=Min+(Max−Min)/(1+10^((Log IC50−X)*slope));
X: Logarithm of compound concentration; Y: luminous signal.
Background: In ATP-based viability assays light output follows the ATP content of the culture.

For test [2], the target named is IGF1R (Homo sapiens, UniProt P08069). Put plainly: IGF1R kinase test (mobility variation analysis, Caliper EZ Reader). It counts as biochemical. The following applies: kinase enzymatic activity, Table 1; read-out: EGFR IGF1R IC50. The essentials: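 Kinase preincubated 10 min at room temperature with compound (10-point 3-fold series, top 3000 nM), then ATP and substrate added and reacted at room temperature. Substrate conversion read by mobility-shift (Caliper EZ Reader); % inhibition vs no-enzyme and no-compound controls fitted to variable-slope curve for IC50.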

In test [3] the target is EGFR WT (Homo sapiens, UniProt P00533). Put plainly: EGFR WT kinase test (mobility variation analysis, Caliper EZ Reader). It counts as biochemical. The following applies: kinase enzymatic activity, Table 1. A digest of the protocol: (§1)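 Kinase pre-incubated with compound 10 minutes at room temperature, then ATP plus peptide substrate added; substrate conversion read by mobility shift after stop solution. Percent inhibition normalized to no-compound and no-enzyme controls; IC50 from variable-slope log(inhibitor) fit.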

The subject of test [4] is A431. Put plainly: A431 cell proliferation assay (CellTiter Glo, 72 hours). The following applies: cell proliferation, A431, 72 hours, Table 2, read-out: A431 IC50. It counts as cell-based. A digest of the protocol:
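A431 cells (2000/well) exposed 72 h to compound at 1000 nM down to 0.2 nM in 3-fold steps, 0.1% DMSO (0.5% for some series). Viability by CellTiter-Glo luminescence; IC50 by four-parameter nonlinear regression.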

The target in test [5] is Ba/F3 cells with EGFR Δ19del/T790M/C797S mutation gene stably overexpressed (Homo sapiens, UniProt P00533, T790M/C797S, cells depend on it, form not given). Put plainly: Ba/F3-Δ19del/T790M/C797S cell proliferation assay (CellTiter Glo, 72 hours). It counts as cell-based. The following applies: Table 2, read-out: EGFR Δ19del/T790M/C797S IC50. A digest of the protocol: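 Ba/F3 cells stably overexpressing wild-type EGFR or EGFR Δ19del/T790M/C797S were seeded at 2000 cells/well and incubated 72 h with compound. Viability was read by CellTiter-Glo luminescence, and IC50 came from a four-parameter logistic fit of signal against log concentration.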

Test [6] has as its target EGFRΔ19del/T790M/C797S (Homo sapiens, UniProt P00533, T790M/C797S, form not given). Put plainly: EGFR Δ19del/T790M/C797S kinase test (mobility variation analysis, Caliper EZ Reader). The following applies: kinase enzymatic activity, Table 1. It counts as biochemical. The essentials:
as §1

Sequence of Ba/F3-EGFR wild-type cell line (P00533 whole entry, stated change not applied): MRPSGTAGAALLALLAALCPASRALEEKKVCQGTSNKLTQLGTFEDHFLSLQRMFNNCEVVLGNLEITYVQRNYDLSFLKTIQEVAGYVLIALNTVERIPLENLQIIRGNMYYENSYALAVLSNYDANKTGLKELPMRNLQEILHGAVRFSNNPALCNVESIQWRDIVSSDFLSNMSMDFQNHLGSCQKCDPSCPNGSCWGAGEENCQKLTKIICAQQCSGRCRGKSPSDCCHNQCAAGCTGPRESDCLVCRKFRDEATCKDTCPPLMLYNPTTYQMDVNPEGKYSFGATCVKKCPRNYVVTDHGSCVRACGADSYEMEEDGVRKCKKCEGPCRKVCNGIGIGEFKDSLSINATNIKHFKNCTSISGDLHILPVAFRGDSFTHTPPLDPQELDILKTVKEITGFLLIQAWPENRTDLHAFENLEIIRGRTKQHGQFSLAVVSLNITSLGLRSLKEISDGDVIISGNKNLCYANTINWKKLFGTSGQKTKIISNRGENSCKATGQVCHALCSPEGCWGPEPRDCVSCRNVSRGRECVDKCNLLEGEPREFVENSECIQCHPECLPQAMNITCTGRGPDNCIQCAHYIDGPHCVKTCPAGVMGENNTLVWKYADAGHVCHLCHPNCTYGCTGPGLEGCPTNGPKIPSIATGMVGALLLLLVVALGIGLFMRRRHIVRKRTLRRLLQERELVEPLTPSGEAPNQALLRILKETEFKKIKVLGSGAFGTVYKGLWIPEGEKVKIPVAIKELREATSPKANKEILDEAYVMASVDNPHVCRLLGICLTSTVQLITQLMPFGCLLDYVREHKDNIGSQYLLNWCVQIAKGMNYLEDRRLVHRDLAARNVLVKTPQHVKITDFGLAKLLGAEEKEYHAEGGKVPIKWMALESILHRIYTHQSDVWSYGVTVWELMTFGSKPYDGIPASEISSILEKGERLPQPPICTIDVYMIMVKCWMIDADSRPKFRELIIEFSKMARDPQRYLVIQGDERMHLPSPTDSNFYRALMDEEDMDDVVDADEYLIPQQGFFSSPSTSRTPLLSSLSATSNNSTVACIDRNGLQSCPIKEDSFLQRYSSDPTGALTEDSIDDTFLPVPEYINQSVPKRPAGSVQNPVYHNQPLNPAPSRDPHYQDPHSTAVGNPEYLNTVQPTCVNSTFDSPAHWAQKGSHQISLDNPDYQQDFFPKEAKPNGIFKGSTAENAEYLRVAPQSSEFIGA
Sequence of IGF1R (P08069 31-1367, species assumed): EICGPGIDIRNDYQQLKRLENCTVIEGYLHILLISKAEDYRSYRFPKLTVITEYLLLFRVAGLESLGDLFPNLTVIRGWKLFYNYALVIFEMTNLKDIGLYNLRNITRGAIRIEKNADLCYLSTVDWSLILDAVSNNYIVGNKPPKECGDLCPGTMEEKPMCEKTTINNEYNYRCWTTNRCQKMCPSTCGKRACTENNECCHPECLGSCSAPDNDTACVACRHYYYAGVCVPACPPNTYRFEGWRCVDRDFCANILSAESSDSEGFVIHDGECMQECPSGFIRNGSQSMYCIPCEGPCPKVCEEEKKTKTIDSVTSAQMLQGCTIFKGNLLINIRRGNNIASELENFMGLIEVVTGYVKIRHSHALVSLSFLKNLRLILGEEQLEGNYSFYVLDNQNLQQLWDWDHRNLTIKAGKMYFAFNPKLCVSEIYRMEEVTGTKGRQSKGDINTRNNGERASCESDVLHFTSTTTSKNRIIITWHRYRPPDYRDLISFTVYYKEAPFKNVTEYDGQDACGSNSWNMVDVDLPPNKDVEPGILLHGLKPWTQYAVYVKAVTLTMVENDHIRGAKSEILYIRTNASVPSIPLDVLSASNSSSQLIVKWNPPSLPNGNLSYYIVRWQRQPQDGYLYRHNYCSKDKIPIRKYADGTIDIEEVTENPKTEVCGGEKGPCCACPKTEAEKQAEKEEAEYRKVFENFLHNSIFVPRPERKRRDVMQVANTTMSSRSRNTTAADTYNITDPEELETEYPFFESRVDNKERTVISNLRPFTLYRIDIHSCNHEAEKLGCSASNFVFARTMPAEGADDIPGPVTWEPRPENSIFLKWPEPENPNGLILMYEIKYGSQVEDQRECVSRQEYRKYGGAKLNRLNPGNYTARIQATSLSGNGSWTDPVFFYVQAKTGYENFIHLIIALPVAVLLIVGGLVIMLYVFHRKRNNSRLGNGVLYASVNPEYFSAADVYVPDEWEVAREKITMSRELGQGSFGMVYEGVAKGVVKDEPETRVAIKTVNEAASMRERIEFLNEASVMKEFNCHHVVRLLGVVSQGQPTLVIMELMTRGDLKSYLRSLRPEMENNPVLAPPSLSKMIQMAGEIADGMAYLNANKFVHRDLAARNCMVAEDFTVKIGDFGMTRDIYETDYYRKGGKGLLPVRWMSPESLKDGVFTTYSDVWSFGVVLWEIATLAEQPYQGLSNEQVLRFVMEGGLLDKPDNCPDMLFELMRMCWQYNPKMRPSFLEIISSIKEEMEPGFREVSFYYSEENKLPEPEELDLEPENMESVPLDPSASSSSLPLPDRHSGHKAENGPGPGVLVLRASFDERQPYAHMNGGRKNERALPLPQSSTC
Sequence of EGFR WT (P00533 25-1210): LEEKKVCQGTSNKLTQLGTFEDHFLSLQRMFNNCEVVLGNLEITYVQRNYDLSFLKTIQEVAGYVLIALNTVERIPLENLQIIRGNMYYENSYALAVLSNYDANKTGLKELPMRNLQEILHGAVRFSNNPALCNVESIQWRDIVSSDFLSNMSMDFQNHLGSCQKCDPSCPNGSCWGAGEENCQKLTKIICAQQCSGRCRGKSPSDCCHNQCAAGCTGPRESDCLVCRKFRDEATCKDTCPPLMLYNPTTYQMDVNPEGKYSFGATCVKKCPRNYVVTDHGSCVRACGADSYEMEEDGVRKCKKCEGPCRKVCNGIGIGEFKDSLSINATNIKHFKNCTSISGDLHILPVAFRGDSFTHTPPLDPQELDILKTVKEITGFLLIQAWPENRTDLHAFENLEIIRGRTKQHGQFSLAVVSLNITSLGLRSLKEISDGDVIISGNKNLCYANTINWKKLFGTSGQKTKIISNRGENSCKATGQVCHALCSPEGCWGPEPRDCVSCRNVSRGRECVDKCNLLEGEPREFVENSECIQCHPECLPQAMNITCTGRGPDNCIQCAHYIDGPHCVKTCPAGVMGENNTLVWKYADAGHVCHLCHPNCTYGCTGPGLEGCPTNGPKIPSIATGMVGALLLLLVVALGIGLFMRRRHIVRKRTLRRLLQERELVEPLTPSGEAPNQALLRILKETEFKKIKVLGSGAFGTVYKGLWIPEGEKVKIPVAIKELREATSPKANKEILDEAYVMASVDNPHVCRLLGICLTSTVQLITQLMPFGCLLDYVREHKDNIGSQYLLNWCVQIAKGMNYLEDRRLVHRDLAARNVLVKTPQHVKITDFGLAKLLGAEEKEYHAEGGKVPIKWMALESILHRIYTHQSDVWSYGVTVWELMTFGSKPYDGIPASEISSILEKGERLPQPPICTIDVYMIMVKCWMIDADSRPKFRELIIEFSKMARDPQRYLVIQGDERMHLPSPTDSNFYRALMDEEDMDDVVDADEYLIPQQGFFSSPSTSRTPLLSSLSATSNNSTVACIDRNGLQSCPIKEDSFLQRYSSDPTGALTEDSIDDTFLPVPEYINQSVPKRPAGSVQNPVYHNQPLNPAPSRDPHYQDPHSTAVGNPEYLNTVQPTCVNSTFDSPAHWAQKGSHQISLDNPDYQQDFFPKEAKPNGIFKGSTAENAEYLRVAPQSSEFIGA
Sequence of Ba/F3 cells with EGFR Δ19del/T790M/C797S mutation gene stably overexpressed (P00533 with tags, fused parts or gaps DEL746-750/T790M/C797S, form open): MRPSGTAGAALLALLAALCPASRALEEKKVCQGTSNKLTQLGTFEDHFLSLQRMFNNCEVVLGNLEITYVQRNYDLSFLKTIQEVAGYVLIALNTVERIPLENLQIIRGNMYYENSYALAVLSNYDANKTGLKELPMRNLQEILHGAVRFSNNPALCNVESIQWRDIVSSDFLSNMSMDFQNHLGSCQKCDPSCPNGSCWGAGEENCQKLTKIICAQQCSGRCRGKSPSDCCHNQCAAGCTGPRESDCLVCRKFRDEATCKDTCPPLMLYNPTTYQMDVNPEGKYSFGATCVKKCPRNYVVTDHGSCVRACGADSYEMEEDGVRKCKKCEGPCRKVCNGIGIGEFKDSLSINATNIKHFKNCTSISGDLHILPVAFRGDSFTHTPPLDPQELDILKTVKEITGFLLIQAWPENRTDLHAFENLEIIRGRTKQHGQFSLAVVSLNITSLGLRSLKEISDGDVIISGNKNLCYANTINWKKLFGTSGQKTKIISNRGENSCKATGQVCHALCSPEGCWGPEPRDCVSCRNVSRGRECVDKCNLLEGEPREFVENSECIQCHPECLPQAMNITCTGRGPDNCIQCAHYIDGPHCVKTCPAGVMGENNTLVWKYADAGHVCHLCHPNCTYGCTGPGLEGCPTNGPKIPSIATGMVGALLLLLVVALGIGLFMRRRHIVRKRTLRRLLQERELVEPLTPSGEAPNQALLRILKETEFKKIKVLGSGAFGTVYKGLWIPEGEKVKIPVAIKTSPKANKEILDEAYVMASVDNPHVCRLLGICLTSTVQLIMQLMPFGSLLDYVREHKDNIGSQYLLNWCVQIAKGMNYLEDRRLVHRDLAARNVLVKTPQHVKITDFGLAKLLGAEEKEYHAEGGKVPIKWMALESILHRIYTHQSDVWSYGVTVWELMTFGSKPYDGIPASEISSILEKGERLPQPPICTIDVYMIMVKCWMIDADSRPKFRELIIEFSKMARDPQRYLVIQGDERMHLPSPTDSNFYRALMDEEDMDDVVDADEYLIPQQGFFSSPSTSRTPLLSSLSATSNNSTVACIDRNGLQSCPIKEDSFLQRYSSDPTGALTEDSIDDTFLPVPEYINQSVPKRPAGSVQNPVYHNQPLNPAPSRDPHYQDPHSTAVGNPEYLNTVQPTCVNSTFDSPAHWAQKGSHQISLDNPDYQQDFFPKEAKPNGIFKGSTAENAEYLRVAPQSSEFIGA

Take `COc1cc(N2CCOCC2)c(C#N)cc1Nc1ncc(Br)c(Nc2ccc(-c3nccs3)cc2P(C)(C)=O)n1` [Compound K-027, 5-((5-Bromo-4-((2-(dimethylphosphineoxide)-4-(thiazol-2-yl)phenyl)amino)pyrimidin-2-yl)amino)-4-methoxy-2-morpholinobenzonitrile]: the GI50 in test [1] was determined as 453 nM; in test [5], 12.9 nM. Moreover, the IC50 in test [2] turned out to be 364 nM; in test [3] it was 50.2 nM; in test [4] (Homo sapiens, A-431, 72 h), 4050 nM; in test [6], 0.6 nM.

For the compound `COc1cc(Nc2ncc(Br)c(Nc3ccc(-c4cnn(C)n4)c(F)c3P(C)(C)=O)n2)c(C)cc1N1CCOCC1` [Compound K-025, (6-((5-Bromo-2-((5-methoxy-2-methyl-4-morpholinophenyl)amino)pyrimidin-4-yl)amino)-2-fluoro-3-(2-methyl-2H-1,2,3-triazol-4-yl)phenyl)dimethylphosphine oxide], the figures for the GI50 in test [1] and in test [5] were 220 nM and 12.6 nM, respectively. The IC50 in test [2] is 69 nM; in test [3], 39 nM; in test [4] (Homo sapiens, A-431, 72 h), above 10000 nM; in test [6], 0.23 nM.

Turning to `CCc1cc(Nc2ncc(Br)c(Nc3ccc(-c4nc(Cl)cs4)cc3P(C)(C)=O)n2)c(OC)cc1N1CCC(N2CCN(C)CC2)CC1` [Compound K-073, (2-((5-Bromo-2-((5-ethyl-2-methoxy-4-(4-(4-methylpiperazin-1-yl)piperidin-1-yl)phenyl)amino)pyrimidin-4-yl)amino)-5-(4-chlorothiazol-2-yl)phenyl)dimethylphosphine oxide], the GI50 is 407 nM in test [1] and 27.7 nM in test [5]. Also, the IC50 came out at 127 nM in test [2]; 22.2 nM in test [3]; 1510 nM in test [4] (Homo sapiens, A-431, 72 h); 0.3 nM in test [6].

For the compound `COc1cc(Nc2ncc(Br)c(Nc3ccc(-c4cnn(C)n4)c(F)c3P(C)(C)=O)n2)c(C)cc1N1CCC(N2CCN(C)CC2)CC1` [Compound K-012, (6-((5-Bromo-2-((5-methoxy-2-methyl-4-(4-(4-methylpiperazin-1-yl)piperidin-1-yl)phenyl)amino)pyrimidin-4-yl)amino)-2-fluoro-3-(2-methyl-2H-1,2,3-triazol-4-yl)phenyl)diniethylphosphine oxide], the results for the GI50 in test [1] and in test [5] were 46 nM and 2.6 nM, respectively. Also, the IC50 was determined as 35 nM in test [2]; 12 nM in test [3]; 5220 nM in test [4] (Homo sapiens, A-431, 72 h); 0.19 nM in test [6].

Consider `CCc1cc(Nc2ncc(Br)c(Nc3ccc(-c4cnn(CC)n4)cc3P(C)(C)=O)n2)c(OC)cc1N1CCC(N2CCN(C)CC2)CC1` [Compound K-062, (2-((5-Bromo-2-((5-ethyl-2-methoxy-4-(4-(4-methylpiperazin-1-yl)piperidin-1-yl)phenyl)amino)pyrimidin-4-yl)amino)-5-(2-ethyl-2H-1,2,3-triazol-4-yl)phenyl)dimethylphosphine oxide], for which the GI50 is 459 nM in test [1] and 23.9 nM in test [5]. Also, the IC50 in test [2] was found to be 126 nM; in test [3], 18 nM; in test [4] (Homo sapiens, A-431, 72 h) it was 1800 nM; in test [6], 0.2 nM.

Turning to `CCc1cc(Nc2ncc(Br)c(Nc3ccc(-c4ccc(C)cn4)cc3P(C)(C)=O)n2)c(OC)cc1N1CCC(N2CCN(C)CC2)CC1` [Compound K-071, (2-((5-Bromo-2-((5-ethyl-2-methoxy-4-(4-(4-methylpiperazin-1-yl)piperidin-1-yl)phenyl)amino)pyrimidin-4-yl)amino)-5-(5-methylpyridin-2-yl)phenyl)dimethylphosphine oxide], the GI50 in test [1] worked out at 218 nM; in test [5] it was 21 nM. Further, the IC50 in test [2] stood at 180 nM; in test [3], 29.4 nM; in test [4] it was 2540 nM; in test [6] it was 0.3 nM.

As for `CCc1cc(Nc2ncc(Br)c(Nc3ccc(-c4ncc(F)cn4)cc3P(C)(C)=O)n2)c(OC)cc1N1CCC(N2CCN(C)CC2)CC1` [Compound 29, (2-((5-Bromo-2-((5-ethyl-2-methoxy-4-(4-(4-methylpiperazin-1-yl)piperidin-1-yl)phenyl)amino)pyrimidin-4-yl)amino)-5-(5-fluoropyrimidin-2-yl)phenyl)dimethylphosphine oxide], the GI50 in test [1] turned out to be 194 nM; in test [5], 13.4 nM. Moreover, the IC50 in test [2] worked out at 80 nM; in test [3] it was 16 nM; in test [4] (Homo sapiens, A-431, 72 h), 2660 nM; in test [6], 0.2 nM.

For the compound `C#Cc1cncc(-c2ccc(Nc3nc(Nc4cc(CC)c(N5CCC(N6CCN(C)CC6)CC5)cc4OC)ncc3Br)c(P(C)(C)=O)c2)n1` [Compound K-013, (2-((5-Bromo-2-((5-ethyl-2-methoxy-4-(4-(4-methylpiperazin-1-yl)piperidin-1-yl)phenyl)amino)pyrimidin-4-yl)amino)-5-(6-ethynylpyrazin-2-yl)phenyl)dimethylphosphine oxide], the GI50 is 70 nM in test [1] and 15.2 nM in test [5]. For the same compound, the concentration for half-maximal inhibition (IC50) in test [2] came out at 166 nM; in test [3], 22.1 nM; in test [4] (Homo sapiens, A-431, 72 h), 1420 nM; in test [6], 0.3 nM.

With `CCc1cc(Nc2ncc(Br)c(Nc3ccc(-c4cc(C)n(C)n4)cc3P(C)(C)=O)n2)c(OC)cc1N1CCC(N2CCN(C)CC2)CC1` [Compound K-066], the results for the GI50 in test [1] and in test [5] were 105 nM and 10.6 nM, respectively. In addition, the IC50 in test [2] amounted to 134 nM; in test [3] it was 13.9 nM; in test [4] (Homo sapiens, A-431, 72 h), 2300 nM; in test [6], 1.1 nM.

For `CCc1cc(Nc2ncc(Br)c(Nc3ccc(-c4ccc(C)nn4)cc3P(C)(C)=O)n2)c(OC)cc1N1CCC(N2CCN(C)CC2)CC1` [Compound 33, (2-((5-Bromo-2-((5-ethyl-2-methoxy-4-(4-(4-methylpiperazin-1-yl)piperidin-1-yl)phenyl)amino)pyrimidin-4-yl)amino)-5-(6-methylpyridazin-3-yl)phenyl)dimethylphosphine oxide], the GI50 came out at 437 nM in test [1] and 13.5 nM in test [5]. The IC50 in test [2] was found to be 177 nM; in test [3], 27.3 nM; in test [4] (Homo sapiens, A-431, 72 h), 962 nM; in test [6] it was 0.3 nM.

On to `CCc1cc(Nc2ncc(Br)c(Nc3ccc(-n4cc(C)cn4)cc3P(C)(C)=O)n2)c(OC)cc1N1CCC(N2CCN(C)CC2)CC1` [Compound K-069, (2-((5-Bromo-2-((5-ethyl-2-methoxy-4-(4-(4-methylpiperazin-1-yl)piperidin-1-yl)phenyl)amino)pyrimidin-4-yl)amino)-5-(4-methyl-1H-pyrazol-1-yl)phenyl)dimethylphosphine oxide], for which the GI50 in test [1] is 355 nM; in test [5], 37.4 nM. Also, the IC50 in test [2] stood at 219 nM; in test [3], 26.7 nM; in test [4], 1610 nM; in test [6] it was 0.67 nM.

In the case of `C#Cc1ccc(-c2ccc(Nc3nc(Nc4cc(C)c(N5CCC(N6CCN(C)CC6)CC5)cc4OC)ncc3Br)c(P(C)(C)=O)c2)s1` [Compound K-016, (2-((5-Bromo-2-((2-methoxy-5-methyl-4-(4-(4-methylpiperazin-1-yl)piperidin-1-yl)phenyl)amino)pyrimidin-4-yl)amino)-5-(5-ethynylthiophen-2-yl)phenyl)dimethylphosphine oxide], the GI50 stood at 145 nM in test [1] and 15.3 nM in test [5]. Further, the IC50 turned out to be 94 nM in test [2]; 13.1 nM in test [3]; 497 nM in test [4] (Homo sapiens, A-431, 72 h); 0.5 nM in test [6].
